Reference: patent publication US20060069132A1, “Azolecarboxamide herbicides” (priority 2004, published 2006)

How the values were obtained:
redroot pigweed = experiment: Test A pre-/postemergence herbicide test; type: in vivo, Amaranthus retroflexus
In short: (§1)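 Visual injury rating on a 0–100 scale (0 no effect, 100 complete control) versus untreated controls, about ten days after treatment in greenhouse. Pre: directed soil spray onto seeded sandy loam. Post: spray to runoff on plants 2–10 cm tall at one- to two-leaf stage.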

barnyardgrass [1] = experiment: Test A pre-/postemergence herbicide test; type: in vivo, Echinochloa crus-galli
In short: as §1

corn = experiment: Test B pre-/postemergence herbicide test; type: in vivo, Zea mays; settings: for Corn plant response rating: postemergence
In short: (§2)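 Test chemicals in a non-phytotoxic solvent mixture with surfactant were applied preemergence to seeded species and postemergence to plants 2-18 cm tall (1- to 4-leaf stage); rice and barnyardgrass were also tested in a flooded paddy at the 2-leaf stage. Visual rating versus controls after 13-15 days in greenhouse, scale 0 (no effect) to 100 (complete control).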

rice = experiment: Test B flooded paddy test; type: in vivo, Oryza sativa; settings: 1000 g ai/ha, scale 0 to 100 (0 no effect, 100 complete control)
In short: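 Paddy species grown to the 2-leaf stage under flooding; blackgrass sprayed postemergence at 2–18 cm (1- to 4-leaf stage). Plants kept in a greenhouse for 13 to 15 days, then visually rated against controls on 0 (no effect) to 100 (complete control).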

wild oat = experiment: Test B postemergence herbicide test; type: in vivo, Avena fatua; settings: postemergence
In short: (§3)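 Plants grow to 1- to 4-leaf stage (2–18 cm) for postemergence spraying, or to 2-leaf stage for the paddy test. Formulated compound is applied. Greenhouse holding lasts 13–15 days. Response is scored visually relative to controls, 0 no effect to 100 complete control; a dash means no result.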

barnyardgrass [2] = experiment: Test B flooded paddy test; type: in vivo, Echinochloa crus-galli; settings: 1000 g ai/ha, scale 0 to 100 (0 no effect, 100 complete control)
In short: (§4)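 Formulated test chemicals went onto postemergence plants measuring 2 to 18 cm, at one to four leaves. For the paddy assay, species had reached two leaves. Scoring took place 13–15 days later by eye, relative to untreated plants, using 0 for no effect up to 100 for full control.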

pigweed = experiment: Test B pre-/postemergence herbicide test; type: in vivo, Amaranthus retroflexus; settings: for Pigweed plant response rating: postemergence
In short: as §2

cocklebur = experiment: Test B pre-/postemergence herbicide test; type: in vivo, Xanthium strumarium; settings: for Cocklebur plant response rating: postemergence
In short: (§5)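 Plants compared with untreated controls 13–15 days post-treatment and given a visual 0–100 injury score. Applications: preemergence to seeds; postemergence at 1- to 4-leaf (2–18 cm); paddy species flooded, 2-leaf stage. Vehicle non-phytotoxic, surfactant included.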

ducksalad = experiment: Test B flooded paddy test; type: in vivo, Heteranthera limosa; settings: 1000 g ai/ha, scale 0 to 100 (0 no effect, 100 complete control)
In short: as §4

velvetleaf [3] = experiment: Test A pre-/postemergence herbicide test; type: in vivo, Abutilon theophrasti
In short: as §1

large crabgrass [4] = experiment: Test A pre-/postemergence herbicide test; type: in vivo, Digitaria sanguinalis
In short: as §1

blackgrass = experiment: Test B postemergence herbicide test; type: in vivo, Alopecurus myosuroides; settings: postemergence
In short: as §4

giant foxtail [5] = experiment: Test B pre-/postemergence herbicide test; type: in vivo, Setaria faberi; settings: for Foxtail, Giant plant response rating: postemergence
In short: as §2

giant foxtail [6] = experiment: Test A pre-/postemergence herbicide test; type: in vivo, Setaria faberi
In short: as §1

Surinam grass = experiment: Test B pre-/postemergence herbicide test; type: in vivo, Urochloa decumbens; settings: for Surinam Grass plant response rating: postemergence
In short: as §2

[7] = test system: small flower umbrella sedge; experiment: Test B flooded paddy test; type: in vivo, Cyperus difformis; settings: 1000 g ai/ha, scale 0 to 100 (0 no effect, 100 complete control)
In short: as §4

wheat = experiment: Test B postemergence herbicide test; type: in vivo, Triticum aestivum; set-up: key to Wheat plant response rating: 0 = no effect, 100 = complete control; settings: postemergence
In short: as §3

large crabgrass [8] = experiment: Test B pre-/postemergence herbicide test; type: in vivo, Digitaria sanguinalis; settings: for Crabgrass, Large plant response rating: postemergence
In short: as §2

lambsquarters = experiment: Test B pre-/postemergence herbicide test; type: in vivo, Chenopodium album; settings: for Lambsquarters plant response rating: postemergence
In short: as §2

morningglory [9] = experiment: Test A pre-/postemergence herbicide test; type: in vivo, Ipomoea spp.
In short: as §1

barnyardgrass [10] = experiment: Test B pre-/postemergence herbicide test; type: in vivo, Echinochloa crus-galli; settings: for Barnyardgrass plant response rating: postemergence
In short: as §5

velvetleaf [11] = experiment: Test B pre-/postemergence herbicide test; type: in vivo, Abutilon theophrasti; settings: for Velvetleaf plant response rating: postemergence
In short: as §2

morningglory [12] = experiment: Test B pre-/postemergence herbicide test; type: in vivo, Ipomoea coccinea; settings: for Morningglory plant response rating: postemergence
In short: as §5

[13] = Postemergence, 500 g ai/ha, 0 to 100 scale, 0 no effect, 100 complete control
[14] = Postemergence, 2000 g ai/ha, 0 to 100 scale, 0 no effect, 100 complete control
[15] = Preemergence, 2000 g ai/ha, visual rating, 0 to 100 scale (0 no effect, 100 complete control)
[16] = preemergence, 500 g ai/ha, visual injury, 0 to 100 scale (0 no effect, 100 complete control)
[17] = 125 g ai/ha, 0 is no effect, 100 is complete control, preemergence
[18] = 125 g ai/ha, visual rating, scale 0 (no effect) to 100 (complete control)
[19] = 500 g ai/ha, visual rating, 0 = no effect, 100 = complete control, preemergence
[20] = 500 g ai/ha, scale 0 to 100, 0 is no effect, 100 is complete control

CCn1nc(C(C)(C)C)cc1C(=O)Nc1cc(OC)ccc1F [Compound 347]
20: Oat, Wild plant response rating (wild oat; [20])
10: Pigweed plant response rating (pigweed; [20]) | Lambsquarters plant response rating (lambsquarters; [18]) | Lambsquarters plant response rating (lambsquarters; [20]) | Morningglory plant response rating (morningglory [12]; [20])
0: Pigweed plant response rating (redroot pigweed; [13]) | Plant response rating, Pigweed (redroot pigweed; [14]) | Pigweed plant response rating (redroot pigweed; [15]) | Pigweed plant response rating (redroot pigweed; [16]) | Barnyardgrass plant response rating (barnyardgrass [1]; [13]) | Plant response rating, Barnyardgrass (barnyardgrass [1]; [14]) | Barnyardgrass plant response rating (barnyardgrass [1]; [15]) | Barnyardgrass plant response rating (barnyardgrass [1]; [16]) | Plant response rating (0 to 100 scale), Corn (corn; [17]) | Corn plant response rating (corn; [18]) | Plant response rating, Corn (corn; [19]) | Corn plant response rating (corn; [20]) | Rice plant response rating (rice) | Oat, Wild plant response rating (wild oat; [18]) | Barnyardgrass plant response rating (barnyardgrass [2]) | Plant response rating (0 to 100 scale), Pigweed (pigweed; [17]) | Pigweed plant response rating (pigweed; [18]) | Plant response rating, Pigweed (pigweed; [19]) | Plant response rating (0 to 100 scale), Cocklebur (cocklebur; [17]) | Cocklebur plant response rating (cocklebur; [18]) | Plant response rating, Cocklebur (cocklebur; [19]) | Cocklebur plant response rating (cocklebur; [20]) | Ducksalad plant response rating (ducksalad) | Velvetleaf plant response rating (velvetleaf [3]; [13]) | Plant response rating, Velvetleaf (velvetleaf [3]; [14]) | Velvetleaf plant response rating (velvetleaf [3]; [15]) | Velvetleaf plant response rating (velvetleaf [3]; [16]) | Crabgrass, Large plant response rating (large crabgrass [4]; [13]) | Plant response rating, Crabgrass, Large (large crabgrass [4]; [14]) | Crabgrass, Large plant response rating (large crabgrass [4]; [15]) | Crabgrass, Large plant response rating (large crabgrass [4]; [16]) | Plant response rating (0 to 100 scale), Foxtail, Giant (giant foxtail [5]; [17]) | Foxtail, Giant plant response rating (giant foxtail [5]; [18]) | Plant response rating, Foxtail, Giant (giant foxtail [5]; [19]) | Foxtail, Giant plant response rating (giant foxtail [5]; [20]) | Foxtail, Giant plant response rating (giant foxtail [6]; [13]) | Plant response rating, Foxtail, Giant (giant foxtail [6]; [14]) | Foxtail, Giant plant response rating (giant foxtail [6]; [15]) | Foxtail, Giant plant response rating (giant foxtail [6]; [16]) | Plant response rating (0 to 100 scale), Surinam Grass (Surinam grass; [17]) | Surinam Grass plant response rating (Surinam grass; [18]) | Plant response rating, Surinam Grass (Surinam grass; [19]) | Surinam Grass plant response rating (Surinam grass; [20]) | Sedge, Umbrella plant response rating [7] | Wheat plant response rating (wheat; [18]) | Wheat plant response rating (wheat; [20]) | Plant response rating (0 to 100 scale), Crabgrass, Large (large crabgrass [8]; [17]) | Crabgrass, Large plant response rating (large crabgrass [8]; [18]) | Plant response rating, Crabgrass, Large (large crabgrass [8]; [19]) | Crabgrass, Large plant response rating (large crabgrass [8]; [20]) | Plant response rating (0 to 100 scale), Lambsquarters (lambsquarters; [17]) | Plant response rating, Lambsquarters (lambsquarters; [19]) | Morningglory plant response rating (morningglory [9]; [13]) | Plant response rating, Morningglory (morningglory [9]; [14]) | Morningglory plant response rating (morningglory [9]; [15]) | Morningglory plant response rating (morningglory [9]; [16]) | Plant response rating (0 to 100 scale), Barnyardgrass (barnyardgrass [10]; [17]) | Barnyardgrass plant response rating (barnyardgrass [10]; [18]) | Plant response rating, Barnyardgrass (barnyardgrass [10]; [19]) | Barnyardgrass plant response rating (barnyardgrass [10]; [20]) | Plant response rating (0 to 100 scale), Velvetleaf (velvetleaf [11]; [17]) | Velvetleaf plant response rating (velvetleaf [11]; [18]) | Velvetleaf plant response rating (velvetleaf [11]; [20]) | Plant response rating (0 to 100 scale), Morningglory (morningglory [12]; [17]) | Morningglory plant response rating (morningglory [12]; [18]) | Plant response rating, Morningglory (morningglory [12]; [19])
30: Blackgrass plant response rating (blackgrass; [18]) | Blackgrass plant response rating (blackgrass; [20])
